Test results: patent US4923963A, “Bradykinin antagonist peptides” (Nova Technology Limited Partnership, priority 1987, dated 1990)
Read-outs that look alike come from different tables or passages of the source. Square brackets hold non-standard residues; d marks the D form. Ends that are not written are not given here. Peptide text beside a SMILES is read from it. dPhe(4-F) = N[C@H](Cc1ccc(F)cc1)C(=O)O; d2Nal = N[C@H](Cc1ccc2ccccc2c1)C(=O)O; Hyp = O=C(O)[C@@H]1C[C@@H](O)CN1; 2Thi = N[C@@H](Cc1cccs1)C(=O)O; d2Thi = N[C@H](Cc1cccs1)C(=O)O

Columns and labels:
[1] = test system: isolated rat uterus; type: cell-based; conditions: for pA2 /RUT: activity class: not quantitated
Outline: (§1)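 Antagonism of bradykinin-induced contraction in isolated rat uterus (natural or induced estrus) and guinea pig ileum. Antagonist preincubated 30 s before a double-ED50 bradykinin dose, with the dose raised until the response fell to that of a single ED50. pA2 is the negative log molar antagonist concentration achieving this (Schild method).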

[2] = test system: isolated guinea pig ileum; type: cell-based; design: pA2 /GPI: activity class: scale not given here; conditions: for pA2 /GPI: activity class: not quantitated
Outline: as §1

[3] = test system: rat blood pressure; experiment: effects on blood pressure in the anesthetized rat (RBP), intraaortic and intravenous bolus; type: in vivo; design: RBP-IA: activity class / RBP-IV: activity class: scale not given here
Experimental: The in vivo effects of bradykinin antagonists on blood pressure in the anesthetized rat are determined according to the assay described by Roblero, Ryan and Stewart (Res. Commun. Pathol. Pharmacol. 6:207, 1973). The antagonists also produce inhibition of the bradykinin response when injected as a bolus admixture of bradykinin plus antagonist by either the ia or iv route of administration.

[4] = in vivo; cited from earlier work
[5] = test system: pulmonary circulation; conditions: anesthetized rat; cited from earlier work
[6] = rat blood pressure, intraaortic bolus
[7] = rat blood pressure, intravenous bolus

## N=C(N)NCCC[C@H](NC(=O)[C@H](Cc1ccccc1)NC(=O)[C@@H](Cc1cccs1)NC(=O)[C@H](CO)NC(=O)[C@H](Cc1ccccc1)NC(=O)CNC(=O)[C@@H]1CCCN1C(=O)[C@@H]1CCCN1C(=O)[C@H](N)Cc1cccs1)C(=O)O [Example 33, DThi-Pro-Pro-Gly-Phe-Ser-DThi-Phe-Arg] (H-[d2Thi]PPGFS[d2Thi]FR-OH)
[1]; isolated rat uterus
  pA2 /RUT: activity class: 0
[2]; isolated guinea pig ileum
  pA2 /GPI: activity class: 0
[3]; [6]
  RBP-IA: activity class: 0
[3]; [7]
  RBP-IV: activity class: 0

## N=C(N)NCCC[C@@H](N)C(=O)N[C@H](Cc1cccs1)C(=O)N1CCC[C@H]1C(=O)N1CCC[C@H]1C(=O)NCC(=O)N[C@@H](Cc1ccccc1)C(=O)N[C@@H](CO)C(=O)N[C@H](Cc1cccs1)C(=O)N[C@@H](Cc1ccccc1)C(=O)N[C@@H](CCCNC(=N)N)C(=O)O [Example 35, DArg-DThi-Pro-Pro-Gly-Phe-Ser-DThi-Phe-Arg] (H-[dR][d2Thi]PPGFS[d2Thi]FR-OH)
[1]; isolated rat uterus
  pA2 /RUT: activity class: 0
[2]; isolated guinea pig ileum
  pA2 /GPI: activity class: 0
[3]; [6]
  RBP-IA: activity class: 0
[3]; [7]
  RBP-IV: activity class: 0

## CC(=O)N[C@@H](CCCNC(=N)N)C(=O)N1CCC[C@H]1C(=O)N1CCC[C@H]1C(=O)NCC(=O)N[C@@H](Cc1cccs1)C(=O)N[C@@H](CO)C(=O)N[C@H](Cc1ccccc1)C(=O)N[C@@H](Cc1cccs1)C(=O)N[C@H](CCCNC(=N)N)C(=O)O [Example 42, Ac-Arg-Pro-Pro-Gly-Thi-Ser-DPhe^7 -Thi-DArg] (Ac-RPPG[2Thi]S[dF][2Thi][dR]-OH)
[1]; isolated rat uterus
  pA2 /RUT: activity class: 0
[2]; isolated guinea pig ileum
  pA2 /GPI: activity class: 0
[3]; [6]
  RBP-IA: activity class: 0
[3]; [7]
  RBP-IV: activity class: 0

## N=C(N)NCCC[C@H](NC(=O)[C@H](Cc1ccccc1)NC(=O)[C@@H](Cc1ccccc1)NC(=O)[C@H](CO)NC(=O)[C@H](Cc1ccccc1)NC(=O)CNC(=O)[C@@H]1C[C@@H](O)CN1C(=O)[C@@H]1CCCN1C(=O)[C@H](N)Cc1ccc2ccccc2c1)C(=O)O [Example 30, DNa]-Pro-Hyp-Gly-Phe-Ser-DPhe-Phe-Arg] (H-[d2Nal]P[Hyp]GFS[dF]FR-OH)
[1]; isolated rat uterus
  pA2 /RUT: activity class: 0
[2]; isolated guinea pig ileum
  pA2 /GPI: agonist potency as percent of BK potency: 0.1%
[3]; [6]
  RBP-IA: activity class: 0
[3]; [7]
  RBP-IV: activity class: 0

## N=C(N)NCCC[C@H](N)C(=O)N1CCC[C@H]1C(=O)N1CCC[C@H]1C(=O)NCC(=O)N[C@@H](Cc1cccs1)C(=O)N[C@@H](CO)C(=O)N[C@H](Cc1ccccc1)C(=O)N[C@@H](Cc1cccs1)C(=O)N[C@H](CCCNC(=N)N)C(=O)O [Example 41, Arg-Pro-Pro-Gly-Thi-Ser-DPhe-Thi-DArg] (H-RPPG[2Thi]S[dF][2Thi][dR]-OH)
[1]
  pA2 /RUT: agonist potency as percent of BK potency: 0.01%
[2]; isolated guinea pig ileum
  pA2 /GPI: activity class: 0
[3]; rat, in vivo
  % DESTR (metabolic breakdown of BK-like agonists in RBP assay): 77%
  RBP-IA: agonist potency as percent of BK potency: 0.1%
[3]; rat, in vivo, iv
  RBP-IV: agonist potency as percent of BK potency: 0.6%

## RPPGFSPFRIY [Example 59, Arg-Pro-Pro-Gly-Phe-Ser-Pro-Phe-Arg-Ile-Tyr]
[1]; isolated rat uterus
  pA2 /RUT: agonist potency as percent of BK potency: 26%
[2]; isolated guinea pig ileum
  pA2 /GPI: agonist potency as percent of BK potency: 21%
[3]; [6]
  RBP-IA: agonist potency as percent of BK potency: 6%
[3]; [7]
  RBP-IV: agonist potency as percent of BK potency: 103%
[3]; relative to BK = 100%
  % DESTR (metabolic breakdown of BK-like agonists in RBP assay): 61%

## CC(C)[C@@H](N)C(=O)N1CCC[C@H]1C(=O)N1C[C@H](O)C[C@H]1C(=O)NCC(=O)N[C@@H](Cc1ccccc1)C(=O)N[C@@H](CO)C(=O)N[C@H](Cc1ccccc1)C(=O)N[C@@H](Cc1ccccc1)C(=O)N[C@@H](CCCNC(=N)N)C(=O)O [Example 15, DVal-Pro-Hyp-Gly-Phe-Ser-DPhe-Phe-Arg] (H-[dV]P[Hyp]GFS[dF]FR-OH)
[1]; isolated rat uterus
  pA2 /RUT: activity class: 0
[2]; isolated guinea pig ileum
  pA2 /GPI: activity class: 0
[3]; [6]
  RBP-IA: activity class: 0
[3]; [7]
  RBP-IV: activity class: 0

## CC[C@H](C)[C@H](NC(=O)[C@H](CCCNC(=N)N)NC(=O)[C@H](Cc1cccs1)NC(=O)[C@@H](Cc1ccccc1)NC(=O)[C@H](CO)NC(=O)[C@H](Cc1cccs1)NC(=O)CNC(=O)[C@@H]1C[C@@H](O)CN1C(=O)[C@@H]1CCCN1C(=O)[C@H](CCCNC(=N)N)NC(=O)[C@H](N)CCCNC(=N)N)C(=O)N[C@@H](Cc1ccc(O)cc1)C(=O)O [Example 68, DArg-Arg-Pro-Hyp-Gly-Thi-Ser-DPhe-Thi-Arg-Ile-Tyr] (H-[dR]RP[Hyp]G[2Thi]S[dF][2Thi]RIY-OH)
[1]
  pA2 /RUT: agonist potency as percent of BK potency: 0.02%
[2]; isolated guinea pig ileum, number of tissues in parentheses
  pA2 /GPI (antagonist potency): 6.7
[3]; rat, in vivo
  RBP-IA: agonist potency as percent of BK potency: 7%

## CC[C@H](C)[C@H](NC(=O)[C@H](CCCNC(=N)N)NC(=O)[C@H](Cc1ccccc1)NC(=O)[C@@H]1CCCN1C(=O)[C@H](CO)NC(=O)[C@H](Cc1ccccc1)NC(=O)CNC(=O)[C@@H]1CCCN1C(=O)[C@@H]1CCCN1C(=O)[C@H](CCCNC(=N)N)NC(=O)[C@H](N)CCCNC(=N)N)C(=O)N[C@@H](Cc1ccc(O)cc1)C(=O)O [Example 60, DArg-Arg-Pro-Pro-Gly-Phe-Ser-Pro-Phe-Arg-Ile-Tyr] (H-[dR]RPPGFSPFRIY-OH)
[1]; isolated rat uterus
  pA2 /RUT: agonist potency as percent of BK potency: 25%
[2]; isolated guinea pig ileum
  pA2 /GPI: agonist potency as percent of BK potency: 34%
[3]; [6]
  RBP-IA: agonist potency as percent of BK potency: 12%
[3]; [7]
  RBP-IV: agonist potency as percent of BK potency: 189%
[3]; relative to BK = 100%
  % DESTR (metabolic breakdown of BK-like agonists in RBP assay): 47%

## CC[C@H](C)[C@H](NC(=O)[C@H](CCCNC(=N)N)NC(=O)[C@H](Cc1ccccc1)NC(=O)[C@@H]1CCCN1C(=O)[C@H](CO)NC(=O)[C@H](Cc1ccccc1)NC(=O)CNC(=O)[C@@H]1CCCN1C(=O)[C@@H]1CCCN1C(=O)[C@H](CCCNC(=N)N)NC(=O)[C@H](CCCCN)NC(=O)[C@@H](N)CCCCN)C(=O)N[C@@H](Cc1ccc(O)cc1)C(=O)O [Example 61, Lys-Lys-Arg-Pro-Pro-Gly-Phe-Ser-Pro-Phe-Arg-Ile-Tyr]
[1]; isolated rat uterus
  pA2 /RUT: agonist potency as percent of BK potency: 18%
[2]; isolated guinea pig ileum
  pA2 /GPI: agonist potency as percent of BK potency: 21%
[3]; [6]
  RBP-IA: agonist potency as percent of BK potency: 9%
[3]; [7]
  RBP-IV: agonist potency as percent of BK potency: 497%
[3]; relative to BK = 100%
  % DESTR (metabolic breakdown of BK-like agonists in RBP assay): 0%

## N=C(N)NCCC[C@@H](N)C(=O)N[C@H](Cc1ccc2ccccc2c1)C(=O)N1CCC[C@H]1C(=O)N1CCC[C@H]1C(=O)NCC(=O)N[C@@H](Cc1ccccc1)C(=O)N[C@@H](CO)C(=O)N[C@H](Cc1cccs1)C(=O)N[C@@H](Cc1ccccc1)C(=O)N[C@@H](CCCNC(=N)N)C(=O)O [Example 39, DArg-DNal-Pro-Pro-Gly-Phe-Ser-DThi-Phe-Arg] (H-[dR][d2Nal]PPGFS[d2Thi]FR-OH)
[1]
  pA2 /RUT (antagonist potency): 5.6
[2]; isolated guinea pig ileum
  pA2 /GPI: activity class: 0
[3]; [6]
  RBP-IA: activity class: 0
[3]; [7]
  RBP-IV: activity class: 0

## [dK]KRPPGFSPRIY [Example 62]
[1]; isolated rat uterus
  pA2 /RUT: agonist potency as percent of BK potency: 5%
[2]; isolated guinea pig ileum
  pA2 /GPI: agonist potency as percent of BK potency: 1%
[3]; [6]
  RBP-IA: agonist potency as percent of BK potency: 5%
[3]; [7]
  RBP-IV: agonist potency as percent of BK potency: 165%
[3]; relative to BK = 100%
  % DESTR (metabolic breakdown of BK-like agonists in RBP assay): 0%

## RPPGFSPFR [bradykinin, Arg-Pro-Pro-Gly-Phe-Ser-Pro-Phe-Arg]
[1]; rat uterus
  pD2 value (negative log of dose causing half maximal contraction): 7.9
[2]; guinea pig ileum
  pD2 value (negative log of dose causing half maximal contraction): 7.4
[4]
  half life in the systemic circulation: less than 30 seconds
[5]
  destruction on a single passage through the pulmonary circulation: 98-99%

## N=C(N)NCCC[C@@H](N)C(=O)N[C@H](Cc1ccc(F)cc1)C(=O)N1CCC[C@H]1C(=O)N1C[C@H](O)C[C@H]1C(=O)NCC(=O)N[C@@H](Cc1ccccc1)C(=O)N[C@@H](CO)C(=O)N[C@H](Cc1ccccc1)C(=O)N[C@@H](Cc1ccccc1)C(=O)N[C@@H](CCCNC(=N)N)C(=O)O [Example 12, DArg-FDF-Pro-Hyp-Gly-Phe-Ser-DPhe-Phe-Arg] (H-[dR][dPhe(4-F)]P[Hyp]GFS[dF]FR-OH)
[1]; isolated rat uterus, number of tissues in parentheses
  pA2 /RUT (antagonist potency): 5.7
[2]; isolated guinea pig ileum
  pA2 /GPI: activity class: 0

## N=C(N)NCCC[C@H](NC(=O)[C@H](Cc1ccccc1)NC(=O)[C@@H](Cc1ccccc1)NC(=O)[C@H](CO)NC(=O)[C@H](Cc1ccccc1)NC(=O)CNC(=O)[C@@H]1CCCN1C(=O)[C@@H]1CCCN1C(=O)[C@H](N)Cc1ccc2ccccc2c1)C(=O)O [Example 29, DNal-Pro-Pro-Gly-Phe-Ser-DPhe-Phe-Arg] (H-[d2Nal]PPGFS[dF]FR-OH)
[1]
  pA2 /RUT (antagonist potency): 5.4
[2]; isolated guinea pig ileum
  pA2 /GPI: activity class: 0
